From patent US20260115202A1, “TOPICAL COMPOSITIONS COMPRISING AN ESTETROL COMPONENT AND USE OF SAID COMPOSITIONS FOR WOUND HEALING” (NEURALIS SA, priority 2022, published 2026)

Tests used:
[1] = test system: LPS-induced delayed wound healing mice model; experiment: In vivo LPS-induced delayed wound healing model: wound histology and immunohistochemistry; details: versus LPS/PBO
Source text: (§1) The in vivo LPS-induced delayed wound healing model was reproduced as previously described (Crompton R, Williams H, Ansell D, Campbell L, Holden K, Cruickshank S, Hardman M J. Oestrogen promotes healing in a bacterial LPS model of delayed cutaneous wound repair. Lab Invest. 2016 April, 96 (4): 439-49).
(§2) Female wild-type (C57BL/6J) 8 weeks old mice were split into six groups (6 animals per experimental group): • Double placebo control (no LPS, placebo treatment), • LPS control (LPS, placebo treatment), • LPS with topical EstroGel (estradiol gel, contains 0.06% 17β-estradiol as hemihydrate in a hydro-alcoholic gel), • LPS with topical AG24 (E4 at 0.5%), • LPS with topical AG25 (E4 at 0.22%), • LPS with topical AG26 (E4 at 0.06%).
The day prior to wounding (day −1), all the animals were weighed and anaesthetised using oxygen and isoflurane (flow rate 1.25-2 L with 2-2.5% isoflurane depending on clinical signs). Animals were shaved and dorsal areas prepped. Wound positions (2 wounds) were marked on the dorsum of each animal. Animals received a first subcutaneous injection of 2 μg K. pneumoniae-derived LPS diluted in DPBS (1 μg per wound: Sigma Aldrich, UK: L4268) at the wound site, except the double placebo group that received DPBS only. A thin layer of EstroGel, AG24, AG25, AG26 or placebo were then applied to the dorsum of each animal, measured as 60 μl total (30 μl/wound). Animals recovered in a warming cabinet and were then single housed in fresh cages containing alpha pad, RO water, food, mash and a house. On day 0 (24 hours after first anaesthesia), mice were re-anaesthetised and dorsal skin cleaned with chlorhexidine wipes. Two 6 mm dorsal excisions were created. 2 μg LPS (1 μg per wound) was subcutaneously injected at the wound site as above, except for the double placebo mice that were injected with DPBS. […]
These are expressed in the increase in uterus weight. Next, we evaluated wound closure from histological samples. […] The degree of re-epithelialisation was determined as the length of neo-epidermis divided by the distance between the wound margins, multiplied by 100.

[2] = test system: Female wild-type (C57BL/6J) 8 weeks old mice; experiment: In vivo LPS-induced delayed wound healing model: uterine weight and morphology; details: topical, 60 μl on days -1 to 4, LPS mice, assessed at day 5
Source text: as §1, §2
The day prior to wounding (day −1), all the animals were weighed and anaesthetised using oxygen and isoflurane (flow rate 1.25-2 L with 2-2.5% isoflurane depending on clinical signs). Animals were shaved and dorsal areas prepped. Wound positions (2 wounds) were marked on the dorsum of each animal. Animals received a first subcutaneous injection of 2 μg K. pneumoniae-derived LPS diluted in DPBS (1 μg per wound: Sigma Aldrich, UK: L4268) at the wound site, except the double placebo group that received DPBS only. A thin layer of EstroGel, AG24, AG25, AG26 or placebo were then applied to the dorsum of each animal, measured as 60 μl total (30 μl/wound). […]

Compound: C[C@]12CC[C@@H]3c4ccc(O)cc4CC[C@H]3[C@@H]1[C@@H](O)[C@@H](O)[C@@H]2O [Formulation E4, 1,3,5 (10)-estratrien-3,15alpha, 16alpha, 17beta-tetrol]
- wound re-epithelialisation ([1]; day 5, K14 immunohistochemistry): promotes re-epithelialization
- wound macrophage numbers ([1]; day 5, immunohistochemistry): reduced numbers of wound macrophages
- wound neutrophil numbers ([1]; day 5, immunohistochemistry): reduced numbers of wound neutrophils
- uterine weight and morphology [2]: affects uterine weight in a dose-dependent manner
